Measurements published in ChEMBL document CHEMBL1132337, “Chiral resolution and stereospecificity of 6-phenyl-4-phenylethynyl- 1,4-dihydropyridines as selective A(3) adenosine receptor antagonists” (J Med Chem, 1999).

These molecules were tested against Adenosine receptor A2a (Rattus norvegicus) (UniProt P30543) (assay: Displacement of [3H]CGS-21680 from Adenosine A2A receptor of rat striatal membrane at 10e-4 M).
Chain of Adenosine receptor A2a (Rattus norvegicus) (P30543 whole entry): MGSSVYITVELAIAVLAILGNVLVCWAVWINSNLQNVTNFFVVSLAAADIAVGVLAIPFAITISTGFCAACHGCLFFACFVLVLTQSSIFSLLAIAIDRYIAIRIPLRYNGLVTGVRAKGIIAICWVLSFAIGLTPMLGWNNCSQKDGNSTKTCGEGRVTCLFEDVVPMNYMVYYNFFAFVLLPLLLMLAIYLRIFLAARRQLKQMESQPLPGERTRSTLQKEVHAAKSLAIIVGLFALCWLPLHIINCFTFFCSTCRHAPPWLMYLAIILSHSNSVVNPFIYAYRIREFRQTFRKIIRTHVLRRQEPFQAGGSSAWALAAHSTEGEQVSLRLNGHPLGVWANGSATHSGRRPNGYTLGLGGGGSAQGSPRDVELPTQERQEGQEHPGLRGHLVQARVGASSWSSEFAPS
An inhibition of 10% was found for `CCOC(=O)C1=C(c2ccccc2)N=C(C)/C(=C(/O)OC[C@H]2COC(C)(C)O2)[C@@H]1C#Cc1ccccc1` in this work. An inhibition of 11% was found for `CCO/C(O)=C1\C(C)=NC(c2ccccc2)=C(C(=O)OCc2ccccc2)[C@@H]1C#Cc1ccccc1` in this work. An inhibition of 14% was found for `CCO/C(O)=C1\C(C)=NC(c2ccccc2)=C(C(=O)OCc2ccccc2)[C@H]1C#Cc1ccccc1` in this work. An inhibition of 10% was found for `CCOC(=O)C1=C(c2ccccc2)N=C(C)/C(=C(/O)OC[C@H](O)CO)[C@H]1C#Cc1ccccc1` in this work. An inhibition of 10% was found for `CCOC(=O)C1=C(c2ccccc2)N=C(C)/C(=C(/O)OC[C@H]2COC(C)(C)O2)[C@H]1C#Cc1ccccc1` in this work. An inhibition of 10% was found for `CCO/C(O)=C1\C(C)=NC(c2ccccc2)=C(C(=O)OCc2ccccc2)C1C#Cc1ccccc1` (stereo unspecified) in this work.
